For 20 compounds, EC50 results are on record in patent US11179383B2 (Gilead Sciences, Inc., priority 2018, dated 2021).

The experiment has as its target T1, α4β7 integrin (Homo sapiens, UniProt P13612+P26010).
T1 construct: monitoring the capture of α4β7 integrin expressing cells on a recombinant MadCAM-1 extracellular domain-coated plate; endogenous in cells; host or cells: RPMI8866 cells
T1 sequence (P13612 34-1032): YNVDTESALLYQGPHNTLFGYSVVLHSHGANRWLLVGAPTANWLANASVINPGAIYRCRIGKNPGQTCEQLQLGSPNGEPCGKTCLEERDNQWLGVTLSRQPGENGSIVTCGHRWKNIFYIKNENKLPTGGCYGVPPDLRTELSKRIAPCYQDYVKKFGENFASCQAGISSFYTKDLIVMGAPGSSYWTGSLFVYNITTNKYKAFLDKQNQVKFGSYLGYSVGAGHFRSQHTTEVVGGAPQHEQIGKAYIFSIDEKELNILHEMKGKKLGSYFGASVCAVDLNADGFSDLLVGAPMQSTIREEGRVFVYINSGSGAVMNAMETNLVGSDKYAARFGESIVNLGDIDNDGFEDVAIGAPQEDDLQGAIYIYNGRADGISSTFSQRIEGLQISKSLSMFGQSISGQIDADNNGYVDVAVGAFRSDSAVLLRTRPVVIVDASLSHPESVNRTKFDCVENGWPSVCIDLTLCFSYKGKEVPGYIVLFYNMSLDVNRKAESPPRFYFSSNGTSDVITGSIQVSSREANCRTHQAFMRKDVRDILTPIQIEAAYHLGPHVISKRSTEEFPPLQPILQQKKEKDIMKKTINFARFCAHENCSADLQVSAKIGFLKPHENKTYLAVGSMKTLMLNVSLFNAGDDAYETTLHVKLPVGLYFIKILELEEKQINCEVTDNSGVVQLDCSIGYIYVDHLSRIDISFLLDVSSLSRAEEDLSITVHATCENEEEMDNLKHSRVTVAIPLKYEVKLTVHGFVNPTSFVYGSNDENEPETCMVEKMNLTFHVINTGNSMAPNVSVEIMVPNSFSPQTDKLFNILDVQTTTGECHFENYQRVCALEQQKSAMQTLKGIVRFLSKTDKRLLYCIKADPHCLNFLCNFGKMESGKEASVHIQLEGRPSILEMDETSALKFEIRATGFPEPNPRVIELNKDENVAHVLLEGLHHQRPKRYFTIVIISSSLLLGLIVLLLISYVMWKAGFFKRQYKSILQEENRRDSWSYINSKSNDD
T1 sequence (P26010 20-798): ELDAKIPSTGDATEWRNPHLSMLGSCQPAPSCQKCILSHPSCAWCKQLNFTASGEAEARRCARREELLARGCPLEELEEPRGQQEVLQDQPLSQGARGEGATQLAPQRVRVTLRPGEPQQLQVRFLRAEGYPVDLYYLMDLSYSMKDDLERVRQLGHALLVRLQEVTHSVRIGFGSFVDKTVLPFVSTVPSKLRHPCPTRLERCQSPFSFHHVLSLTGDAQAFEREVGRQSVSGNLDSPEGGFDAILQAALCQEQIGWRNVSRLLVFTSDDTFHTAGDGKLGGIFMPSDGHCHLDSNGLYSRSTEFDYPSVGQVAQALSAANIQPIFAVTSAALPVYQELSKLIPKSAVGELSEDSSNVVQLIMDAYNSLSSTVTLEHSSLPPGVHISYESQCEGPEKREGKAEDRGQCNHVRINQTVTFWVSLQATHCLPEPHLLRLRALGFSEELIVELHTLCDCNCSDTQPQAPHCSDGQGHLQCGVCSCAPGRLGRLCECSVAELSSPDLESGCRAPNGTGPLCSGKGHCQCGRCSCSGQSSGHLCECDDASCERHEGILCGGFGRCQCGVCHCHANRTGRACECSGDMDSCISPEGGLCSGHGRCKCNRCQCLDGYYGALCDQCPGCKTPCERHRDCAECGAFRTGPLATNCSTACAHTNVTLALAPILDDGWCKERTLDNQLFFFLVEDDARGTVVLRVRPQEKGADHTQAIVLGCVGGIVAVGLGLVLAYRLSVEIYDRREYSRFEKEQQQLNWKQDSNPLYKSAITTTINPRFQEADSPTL
Description: α4β7 Integrin Cell Capture Assay. To be noted: capture of α4β7 integrin expressing RPMI8866 cells on recombinant MadCAM-1 extracellular domain-coated plate; DMEM+0.5% FBS+0.5 mM MnCl2; read-out: EC50 α4β7. The experiment is classed as cell-based. The procedure, abridged: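 RPMI8866 cells in DMEM + 0.5% FBS + 0.5 mM MnCl2 preincubated with compound 1 h at 37 °C, then allowed to bind 30 min at 37 °C to plates coated with MAdCAM-1 extracellular domain (1.0 μg/mL). Cells fixed with glutaraldehyde, Hoechst-stained, imaged and bound cells counted; EC50 from cell count versus concentration.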

On to `COc1cccc(OC)c1-c1ccc(C[C@H](NC(=O)c2c(F)cc(NS(=O)(=O)c3ccc(-n4cncn4)cc3)cc2F)C(=O)O)c2ccccc12` [Example 104, (S)-2-(4-((4-(1H-1,2,4-triazol-1-yl)phenyl)sulfonamido)-2,6-difluorobenzamido)-3-(4-(2,6-dimethoxyphenyl)naphthalen-1-yl)propanoic acid], for which the EC50 turned out to be 0.8 nM.
For `CCOCc1cc(OC)c(-c2ccc(C[C@H](NC(=O)c3c(F)cc(NS(=O)(=O)c4ccc(-c5ccnc(F)c5)cc4)cc3F)C(=O)O)c3ccccc23)c(OC)c1` [Example 105, (S)-2-(2,6-difluoro-4-((4-(2-fluoropyridin-4-yl)phenyl)sulfonamido)benzamido)-3-(4-(4-(ethoxymethyl)-2,6-dimethoxyphenyl)naphthalen-1-yl)propanoic acid] the value was 0.8 nM; for `O=C(N[C@@H](Cc1ccc(-c2c(Cl)cc(F)cc2Cl)c2ccccc12)C(=O)O)c1c(F)cccc1F` [Example 106, (S)-3-(4-(2,6-dichloro-4-fluorophenyl)naphthalen-1-yl)-2-(2,6-difluorobenzamido)propanoic acid], 196 nM; for `O=C(N[C@@H](Cc1ccc(-c2c(Cl)cc(F)cc2Cl)c2ccccc12)C(=O)O)c1c(Cl)cccc1Cl` [Example 107, (S)-3-(4-(2,6-dichloro-4-fluorophenyl)naphthalen-1-yl)-2-(2,6-dichlorobenzamido)propanoic acid], 139 nM.
For `Cn1c(=O)c(-c2ccc(C[C@H](NC(=O)c3c(Cl)cccc3Cl)C(=O)O)c3ccccc23)cc2ccccc21` [Example 108, (S)-2-(2,6-dichlorobenzamido)-3-(4-(1-methyl-2-oxo-1,2-dihydroquinolin-3-yl)naphthalen-1-yl)propanoic acid] the value was 3.4 nM; for `O=C(N[C@@H](Cc1ccc(-c2cccc3c2OCCC3)c2ccccc12)C(=O)O)c1c(Cl)cccc1Cl` [Example 111, (S)-3-(4-(chroman-8-yl)naphthalen-1-yl)-2-(2,6-dichlorobenzamido) propanoic acid], 76.6 nM; for `O=C(N[C@@H](Cc1ccc(-c2cccc3c2OCCC3)c2ccccc12)C(=O)O)c1c(F)cccc1F` [Example 112, (S)-3-(4-(chroman-8-yl)naphthalen-1-yl)-2-(2,6-difluorobenzamido) propanoic acid], 53.3 nM.
The result for `O=C(N[C@@H](Cc1ccc(-c2ncc3ccccc3c2Br)c2ccccc12)C(=O)O)c1c(Cl)cccc1Cl` [Example 113, (S)-3-(4-(4-bromoisoquinolin-3-yl)naphthalen-1-yl)-2-(2,6-dichlorobenzamido) propanoic acid] reads 12.3 nM; that for `O=C(N[C@@H](Cc1ccc(-c2ncc3ccccc3c2Br)c2ccccc12)C(=O)O)c1c(F)cccc1F` [Example 114, (S)-3-(4-(4-bromoisoquinolin-3-yl)naphthalen-1-yl)-2-(2,6-difluorobenzamido)propanoic acid], 29.9 nM.
As for `O=C(N[C@@H](Cc1ccc(-c2ncc3ccccc3c2C(F)(F)F)c2ccccc12)C(=O)O)c1c(Cl)cccc1Cl` [Example 115, (S)-2-(2,6-dichlorobenzamido)-3-(4-(4-(trifluoromethyl)isoquinolin-3-yl)naphthalen-1-yl)propanoic acid], the EC50 stood at 21.7 nM.
The result for `O=C(N[C@@H](Cc1ccc(-c2cc(F)c(F)cc2OC2CC2)c2ccccc12)C(=O)O)c1c(Cl)cccc1Cl` [Example 116, (S)-3-(4-(2-cyclopropoxy-4,5-difluorophenyl)naphthalen-1-yl)-2-(2,6-dichlorobenzamido)propanoic acid] reads 72.6 nM.
The result for `Cn1c(=O)c(-c2ccc(C[C@H](NC(=O)c3c(Cl)cccc3Cl)C(=O)O)c3ccccc23)c(C(F)(F)F)c2ccccc21` [Example 121, (S)-2-(2,6-dichlorobenzamido)-3-(4-(1-methyl-2-oxo-4-(trifluoromethyl)-1,2-dihydroquinolin-3-yl)naphthalen-1-yl)propanoic acid] reads 3.9 nM; that for `Cc1ccnc(-c2ccc(C[C@H](NC(=O)c3c(F)cc(N4CCOC[C@@H]4C(F)(F)F)cc3F)C(=O)O)c3ccccc23)c1C(F)(F)F` [Example 122], 1.1 nM; that for `CC[C@@H](Nc1cc(F)c(C(=O)N[C@@H](Cc2ccc(-c3nccc(C)c3C(F)(F)F)c3ccccc23)C(=O)O)c(F)c1)C(F)(F)F` [Example 123, (S)-2-(2,6-difluoro-4-(((R)-1,1,1-trifluorobutan-2-yl)amino)benzamido)-3-(4-(4-methyl-3-(trifluoromethyl)pyridin-2-yl)naphthalen-1-yl)propanoic acid], 10.2 nM.
`Cc1c(-c2ccc(C[C@H](NC(=O)c3c(F)cc(N4CCOC[C@@H]4C(F)(F)F)cc3F)C(=O)O)c3ccccc23)c(=O)n(C)c(=O)n1C` [Example 138, (S)-2-(2,6-difluoro-4-((R)-3-(trifluoromethyl)morpholino)benzamido)-3-(4-(1,3,6-trimethyl-2,4-dioxo-1,2,3,4-tetrahydropyrimidin-5-yl)naphthalen-1-yl)propanoic acid]: the EC50 came out at 0.3 nM.
For `CC[C@@H](Nc1cc(F)c(C(=O)N[C@@H](Cc2ccc(-c3c(C)n(C)c(=O)n(C)c3=O)c3ccccc23)C(=O)O)c(F)c1)C(F)(F)F` [Example 139, (S)-2-(2,6-difluoro-4-(((R)-1,1,1-trifluorobutan-2-yl)amino)benzamido)-3-(4-(1,3,6-trimethyl-2,4-dioxo-1,2,3,4-tetrahydropyrimidin-5-yl)naphthalen-1-yl)propanoic acid] the value was 0.4 nM; for `Cn1c(=O)c(-c2ccc(C[C@H](NC(=O)c3c(F)cc(N4CCOC[C@@H]4C(F)(F)F)cc3F)C(=O)O)c3ccccc23)cc2cnccc21` [Example 140, (S)-2-(2,6-difluoro-4-((R)-3-(trifluoromethyl)morpholino)benzamido)-3-(4-(1-methyl-2-oxo-1,2-dihydro-1,6-naphthyridin-3-yl)naphthalen-1-yl)propanoic acid], 0.1 nM.
The result for `Cc1cnc(-c2ccc(C[C@H](NC(=O)c3c(F)cc(N4CCOC[C@@H]4C(F)(F)F)cc3F)C(=O)O)c3ccccc23)nc1C` [Example 141, (S)-2-(2,6-difluoro-4-((R)-3-(trifluoromethyl)morpholino)benzamido)-3-(4-(4,5-dimethylpyrimidin-2-yl)naphthalen-1-yl)propanoic acid] reads 3.6 nM.
The result for `CC[C@@H](Nc1cc(F)c(C(=O)N[C@@H](Cc2ccc(-c3cc4cnccc4n(C)c3=O)c3ccccc23)C(=O)O)c(F)c1)C(F)(F)F` [Example 142] reads 0.5 nM; that for `CCOCc1cc(OC)c(-c2ccc(CC(NC(=O)c3c(F)cc(NS(=O)(=O)c4ccc(-c5ccnc(F)c5)cc4)cc3F)C(=O)O)c3c2cnn3C)c(OC)c1` (centres unmarked) [Example 143, 2-(2,6-difluoro-4-((4-(2-fluoropyridin-4-yl)phenyl)sulfonamido)benzamido)-3-(4-(4-(ethoxymethyl)-2,6-dimethoxyphenyl)-1-methyl-1H-indazol-7-yl)propanoic acid], 30.2 nM.

The term EC50 denotes the concentration giving half of the maximal effect.
